Measured values from US6967196B1, “Sulfonamide compounds and uses thereof” (Bristol-Myers Squibb Company, priority 1999, dated 2005).
Like-named read-outs stand apart in the source and are kept apart here.

Tested on: amyloid β production in transfected H4 (human neuroglioma) cells stably expressing APP constructs
Experiment: In vitro cell-based assay of inhibitors of amyloid β production (ELISA)
Conditions: approximately 16 hours incubation, amyloid β in medium by ELISA, read-out: ACTIVITY (IC50, inhibition of amyloid β production)
Method in brief: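 H4 neuroglioma cells stably expressing APP constructs were dosed in fresh medium, screened initially at 10-100 μM, and incubated ~16 h. Medium Aβ was measured by ELISA with C-terminal-epitope capture and N-terminal detection antibodies, quantified from a standard curve, with dose-response testing of actives.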

[1] = Homo sapiens, 16 h, transfected H4 cells expressing APP
[2] = transfected H4 cells expressing APP

| Compound | IC50 [1] [nM] | other results |
| --- | --- | --- |
| C[C@H](C(=O)NC[C@]12CC3C[C@H](C[C@H](C3)C1)C2)N(c1cc(Cl)ccc1F)S(=O)(=O)c1ccc(Cl)cc1 [Example 1306] | > 500 |  |
| C[C@H](C(=O)NC1CCCC1)C(c1cc(Cl)ccc1F)S(=O)(=O)c1ccc(Cl)cc1 (some centres unmarked) [Example 1307] | 100 to 500 |  |
| C[C@H](C(=O)NC1CCCCC1)N(c1cc(Cl)ccc1F)S(=O)(=O)c1ccc(Cl)cc1 [Example 1308] | 100 to 500 |  |
| C[C@H](C(=O)NC1CCCc2ccccc21)N(c1cc(Cl)ccc1F)S(=O)(=O)c1ccc(Cl)cc1 (some centres unmarked) [Example 1309] | > 500 |  |
| C[C@H](C(=O)NC1Cc2ccccc2C1)N(c1cc(Cl)ccc1F)S(=O)(=O)c1ccc(Cl)cc1 [Example 1310] | > 500 |  |
| C[C@H](C(=O)Nc1ccc2[nH]ncc2c1)N(c1cc(Cl)ccc1F)S(=O)(=O)c1ccc(Cl)cc1 [Example 1311] | > 500 |  |
| CCN(CC)CCCC(C)NC(=O)[C@@H](C)N(c1cc(Cl)ccc1F)S(=O)(=O)c1ccc(Cl)cc1 (some centres unmarked) [Example 1312] | > 500 |  |
| C[C@H](C(=O)NCc1ccncc1)N(c1cc(Cl)ccc1F)S(=O)(=O)c1ccc(Cl)cc1 [Example 1313] | 100 to 500 |  |
| C[C@H](C(=O)NCCc1c(Cl)cccc1Cl)N(c1cc(Cl)ccc1F)S(=O)(=O)c1ccc(Cl)cc1 [Example 1314] | 100 to 500 |  |
| CCN(CCNC(=O)[C@@H](C)N(c1cc(Cl)ccc1F)S(=O)(=O)c1ccc(Cl)cc1)c1cccc(C)c1 [Example 1315] | > 500 |  |
| C[C@H](C(=O)NC1CCC(C(C)(C)C)CC1)N(c1cc(Cl)ccc1F)S(=O)(=O)c1ccc(Cl)cc1 (some centres unmarked) [Example 1316] | > 500 |  |
| C[C@H](C(=O)NCCc1cccs1)N(c1cc(Cl)ccc1F)S(=O)(=O)c1ccc(Cl)cc1 [Example 1317] | > 500 |  |
| C[C@H](C(=O)NCCOc1ccccc1)N(c1cc(Cl)ccc1F)S(=O)(=O)c1ccc(Cl)cc1 [Example 1318] | > 500 |  |
| C[C@H](C(=O)NCc1ccc2c(c1)OCO2)N(c1cc(Cl)ccc1F)S(=O)(=O)c1ccc(Cl)cc1 [Example 1319] | > 500 |  |
| CCOCCCNC(=O)[C@@H](C)N(c1cc(Cl)ccc1F)S(=O)(=O)c1ccc(Cl)cc1 [Example 1320] | 100 to 500 |  |
| C[C@H](C(=O)NCC1CCCO1)N(c1cc(Cl)ccc1F)S(=O)(=O)c1ccc(Cl)cc1 (some centres unmarked) [Example 1321] | 100 to 500 |  |
| C[C@H](C(=O)NCCCN1CCOCC1)N(c1cc(Cl)ccc1F)S(=O)(=O)c1ccc(Cl)cc1 [Example 1322] | > 500 |  |
| C[C@H](C(=O)NC[C@@H]1CC[C@H]2C[C@@H]1C2(C)C)N(c1cc(Cl)ccc1F)S(=O)(=O)c1ccc(Cl)cc1 [Example 1323] | > 500 |  |
| C[C@H](C(=O)NCCCCc1ccccc1)N(c1cc(Cl)ccc1F)S(=O)(=O)c1ccc(Cl)cc1 [Example 1324] | > 500 |  |
| Cc1ccc(CCNC(=O)[C@@H](C)N(c2cc(Cl)ccc2F)S(=O)(=O)c2ccc(Cl)cc2)cc1 [Example 1325] | > 500 |  |
| C[C@H](C(=O)NCCc1ccc(F)cc1)N(c1cc(Cl)ccc1F)S(=O)(=O)c1ccc(Cl)cc1 [Example 1326] | > 500 |  |

| Compound | IC50 [1] [nM] | other results |
| --- | --- | --- |
| C[C@H](C(=O)NCc1c(F)cccc1F)N(c1cc(Cl)ccc1F)S(=O)(=O)c1ccc(Cl)cc1 [Example 1327] | > 500 |  |
| C[C@H](C(=O)NCC(C)(C)CO)N(c1cc(Cl)ccc1F)S(=O)(=O)c1ccc(Cl)cc1 [Example 1328] | 100 to 500 |  |
| C[C@H](C(=O)N(CCN)c1ccccc1)N(c1cc(Cl)ccc1F)S(=O)(=O)c1ccc(Cl)cc1 [Example 1329] | > 500 |  |
| C[C@H](C(=O)NCc1cccc(I)c1)N(c1cc(Cl)ccc1F)S(=O)(=O)c1ccc(Cl)cc1 [Example 1330] | > 500 |  |
| C[C@H](C(=O)NCCc1ccc(O)cc1)N(c1cc(Cl)ccc1F)S(=O)(=O)c1ccc(Cl)cc1 [Example 1331] | > 500 |  |
| C[C@H](C(=O)NCc1cccnc1)N(c1cc(Cl)ccc1F)S(=O)(=O)c1ccc(Cl)cc1 [Example 1332] | 100 to 500 |  |
| CCCCN(CCCC)CCCNC(=O)[C@@H](C)N(c1cc(Cl)ccc1F)S(=O)(=O)c1ccc(Cl)cc1 [Example 1333] | > 500 |  |
| C[C@H](C(=O)NCc1ccc(F)c(F)c1)N(c1cc(Cl)ccc1F)S(=O)(=O)c1ccc(Cl)cc1 [Example 1334] | > 500 |  |
| CC(CCCC(C)(C)O)NC(=O)[C@@H](C)N(c1cc(Cl)ccc1F)S(=O)(=O)c1ccc(Cl)cc1 (some centres unmarked) [Example 1335] | > 500 |  |
| C[C@H](C(=O)Nc1cc(Cl)ccc1O)N(c1cc(Cl)ccc1F)S(=O)(=O)c1ccc(Cl)cc1 [Example 1336] | > 500 |  |
| CCCCCCCCCCCCCCNC(=O)[C@@H](C)N(c1cc(Cl)ccc1F)S(=O)(=O)c1ccc(Cl)cc1 [Example 1337] | > 500 |  |
| C[C@H](C(=O)N[C@H]1CC[C@H](O)CC1)N(c1cc(Cl)ccc1F)S(=O)(=O)c1ccc(Cl)cc1 [Example 1338] | 100 to 500 |  |
| C[C@H](C(=O)NCCc1ccccn1)N(c1cc(Cl)ccc1F)S(=O)(=O)c1ccc(Cl)cc1 [Example 1339] | 100 to 500 |  |
| CC1CCCCN1CCCNC(=O)[C@@H](C)N(c1cc(Cl)ccc1F)S(=O)(=O)c1ccc(Cl)cc1 (some centres unmarked) [Example 1340] | > 500 |  |
| C[C@H](C(=O)NCc1ccccn1)N(c1cc(Cl)ccc1F)S(=O)(=O)c1ccc(Cl)cc1 [Example 1341] | 100 to 500 |  |
| CC1CCC(NC(=O)[C@@H](C)N(c2cc(Cl)ccc2F)S(=O)(=O)c2ccc(Cl)cc2)CC1 (some centres unmarked) [Example 1342] | 100 to 500 |  |
| C[C@H](C(=O)N[C@@H](CO)CSCc1ccccc1)N(c1cc(Cl)ccc1F)S(=O)(=O)c1ccc(Cl)cc1 [Example 1343] | > 500 |  |
| C[C@H](C(=O)NC(C)(C)CO)N(c1cc(Cl)ccc1F)S(=O)(=O)c1ccc(Cl)cc1 [Example 1344] | 100 to 500 |  |
| C[C@H](C(=O)NC1CCCCCCC1)N(c1cc(Cl)ccc1F)S(=O)(=O)c1ccc(Cl)cc1 [Example 1345] | 100 to 500 |  |
| COCCCNC(=O)[C@@H](C)N(c1cc(Cl)ccc1F)S(=O)(=O)c1ccc(Cl)cc1 [Example 1346] | 100 to 500 |  |
| CC1CCCC(NC(=O)[C@@H](C)N(c2cc(Cl)ccc2F)S(=O)(=O)c2ccc(Cl)cc2)C1 (some centres unmarked) [Example 1347] | 100 to 500 |  |

| Compound | IC50 [1] [nM] | other results |
| --- | --- | --- |
| CCC(C)(C)c1ccc(OCCCCNC(=O)[C@@H](C)N(c2cc(Cl)ccc2F)S(=O)(=O)c2ccc(Cl)cc2)c(C(C)(C)CC)c1 [Example 1348] | > 500 |  |
| CC(C)C(CO)NC(=O)[C@@H](C)N(c1cc(Cl)ccc1F)S(=O)(=O)c1ccc(Cl)cc1 (some centres unmarked) [Example 1349] | 100 to 500 |  |
| C[C@H](C(=O)NCCCCCCO)N(c1cc(Cl)ccc1F)S(=O)(=O)c1ccc(Cl)cc1 [Example 1350] | 100 to 500 |  |
| C[C@H](C(=O)N[C@H](C)C1CCCCC1)N(c1cc(Cl)ccc1F)S(=O)(=O)c1ccc(Cl)cc1 [Example 1351] | > 500 |  |
| C[C@H](C(=O)NCCN1CCCCC1)N(c1cc(Cl)ccc1F)S(=O)(=O)c1ccc(Cl)cc1 [Example 1352] | > 500 |  |
| COc1ccc(CCNC(=O)[C@@H](C)N(c2cc(Cl)ccc2F)S(=O)(=O)c2ccc(Cl)cc2)cc1 [Example 1353] | > 500 |  |
| C[C@H](C(=O)N(CCN)c1ccc([N+](=O)[O-])cn1)N(c1cc(Cl)ccc1F)S(=O)(=O)c1ccc(Cl)cc1 [Example 1354] | > 500 |  |
| C[C@H](C(=O)N[C@H](CO)Cc1ccccc1)N(c1cc(Cl)ccc1F)S(=O)(=O)c1ccc(Cl)cc1 [Example 1355] | > 500 |  |
| C[C@H](C(=O)NCc1cc(F)ccc1F)N(c1cc(Cl)ccc1F)S(=O)(=O)c1ccc(Cl)cc1 [Example 1356] |  | IC50 [2]: > 500 nM |
| C[C@H](C(=O)NCc1cccs1)N(c1cc(Cl)ccc1F)S(=O)(=O)c1ccc(Cl)cc1 [Example 1357] | 100 to 500 |  |
| CC(C(=O)N[C@@H]1C[C@H]2CC[C@@H]1CC2)N(c1cc(Cl)ccc1F)S(=O)(=O)c1ccc(Cl)cc1 (some centres unmarked) [Example 1358] | 100 to 500 |  |
| C[C@H](C(=O)NCCc1ccccc1F)N(c1cc(Cl)ccc1F)S(=O)(=O)c1ccc(Cl)cc1 [Example 1359] | > 500 |  |
| C[C@H](C(=O)NCCCCO)N(c1cc(Cl)ccc1F)S(=O)(=O)c1ccc(Cl)cc1 [Example 1360] | 100 to 500 |  |
| COc1ccc(CNC(=O)[C@@H](C)N(c2cc(Cl)ccc2F)S(=O)(=O)c2ccc(Cl)cc2)cc1 [Example 1361] | > 500 |  |
| COc1cc(CNC(=O)[C@@H](C)N(c2cc(Cl)ccc2F)S(=O)(=O)c2ccc(Cl)cc2)cc(OC)c1OC [Example 1362] | > 500 |  |
| C[C@@H](C(=O)NCc1ccccc1Sc1ccccc1CO)N(c1cc(Cl)ccc1F)S(=O)(=O)c1ccc(Cl)cc1 [Example 1363] | > 500 |  |
| COc1cccc(OC)c1CNC(=O)[C@@H](C)N(c1cc(Cl)ccc1F)S(=O)(=O)c1ccc(Cl)cc1 [Example 1364] |  | IC50 [2]: > 500 nM |
| C[C@H](C(=O)NCc1cc(Cl)cc(Cl)c1)N(c1cc(Cl)ccc1F)S(=O)(=O)c1ccc(Cl)cc1 [Example 1365] | > 500 |  |
| C[C@H](C(=O)NCc1ccc(C2=CSNN2)cc1)N(c1cc(Cl)ccc1F)S(=O)(=O)c1ccc(Cl)cc1 [Example 1366] | > 500 |  |
| (2E)-1-N-(benzyloxy)-3-[2-({[(4-chlorophenyl)sulfonyl]anilino}methyl)phenyl]-2-propenamide hydrochloride [Example 1093] |  | IC50 (transfected H4 cells stably expressing APP constructs): > 10000 nM |
